From patent publication US9944969B2, “Devices, systems and methods for detecting viable infectious agents in a fluid sample” (eSense, LLC, priority 2015, dated 2018) come the findings set out here.

Assay [1] deals with Staphylococcus saprophyticus. Put plainly: pH change of sample effluent after exposure of Staphylococcus saprophyticus to anti-infective (ISFET sensor system, FIG. 10). The format is cell-based. Particulars: Staphylococcus saprophyticus from fluid sample; pH of sample effluent 60 minutes after exposure. The source says: In these examples, Staphylococcus saprophyticus can be one of the infectious agents 102 present in the fluid sample 124 applied or introduced to the system 100.

The test system of assay [2] is E. coli. Put plainly: pH change of sample effluent after exposure of E. coli to anti-infective (ISFET sensor system, FIG. 9). The format is cell-based. Particulars: for concentration of anti-infective to which the E. coli is resistant (change in pH): E. coli from fluid sample, pH of sample effluent 60 minutes after exposure. The source says: FIG. 9 illustrates experimental results of experiments conducted using the methods and system 100 described herein. The graphs in FIG. 9 show a change in the solution characteristic 136 of the measured liquid 402, such as the sample effluent 134, monitored by the system 100 at a specific point in time. In this case, the graphs in FIG. 9 show the change in the solution characteristic 136 of the measured liquid 402 sixty (60) minutes after an anti-infective 104 is introduced to the filter 110, the substrate wells 200, or a combination thereof comprising the infectious agent 102.
In this example, E. coli can be one of the infectious agents 102 present in the fluid sample 124 applied or introduced to the system 100. […] An insignificant change in the solution characteristic 136 can be a change below a statistically significant percentage or threshold value.

In the case of `CC1(C)S[C@@H]2[C@H](NC(=O)[C@H](N)c3ccccc3)C(=O)N2[C@H]1C(=O)O` [ampicillin], in assay [1], the “concentration of anti-infective to which the Staphylococcus saprophyticus is resistant (change in pH)” value is given as “up to 50 μg/ml”.

For `O=C1CN(/N=C/c2ccc([N+](=O)[O-])o2)C(=O)N1` [nitrofurantoin], in assay [1], the “concentration of anti-infective at which the Staphylococcus saprophyticus is susceptible” value is given as “higher than 1 μg/ml” and the “concentration of anti-infective to which the Staphylococcus saprophyticus is resistant (change in pH)” value is recorded as “approximately 1 μg/ml”. Besides, the “concentration of anti-infective to which the E. coli is resistant (change in pH)” value in assay [2] was “approximately 1 μg/ml”. In assay [2] (Escherichia coli, 1 h, read-out: minimal inhibitory concentration (MIC)), the MIC turned out to be 1 µg/mL.

Take `O=C(O)c1cn(C2CC2)c2cc(N3CCNCC3)c(F)cc2c1=O` [ciprofloxacin]: in assay [2], the “concentration of anti-infective to which the E. coli is resistant (change in pH)” value is listed as “approximately 0.1 μg/ml”.
